US20120065153A1, “AZASUGAR DERIVATIVES, HEPARANASE INHIBITORS, METHOD FOR PREPARING SAME, COMPOSITIONS CONTAINING SAME, USE THEREOF” (SANOFI-AVENTIS, priority 2004, published 2012)

What was measured:
HT1080 tumour cells = test: Invasion of HT1080 tumour cells through Matrigel (cell invasion test); format: cell-based, human
Experimental: The effect of the compounds of formula (I), inhibitors of heparanases, was tested in vitro on the invasion of HT1080 tumour cells.
The cells derived from human fibrosarcomas, HT1080 (ATCC CCL-121) are cultured in a DMEM medium (Ref.: GIBCO 11960-044) containing 5% Foetal Calf Serum, glutamine (2 mM) (Ref.: GIBCO 25030-024), sodium pyruvate (1 mM) (Ref.: GIBCO 11360-039) and nonessential amino acids (1×) (Ref.: GIBCO 11140-035), on collagen coated flasks (Becton Dickinson 75 cm^2; Ref. 354523), to 50 to 80% confluence.
The measurements of invasion of the HT1080 cells are carried out on a Becton Dickinson falcon HTS Fluoroblock Multiwell Insert System kit in 24-well plates (Ref.: 351158). These measurement chambers give the cells the conditions which make it possible to evaluate their invasive properties in vitro.
The kit is composed of a plate combined with culture inserts containing a PET membrane pierced with 8 micron pores on which a uniform Matrigel Matrix (Becton Dickinson; Ref. 354230) layer is deposited.
Matrigel is a soluble basal membrane extracted from the EHS (Engelbreth-Holm-Swarm) tumour which, by virtue of its composition, forms, upon solidifying, a structure equivalent to a basal membrane.
The Matrigel layer blocks the pores of the membrane, thus blocking the migration of the noninvasive cells across the membrane. By contrast, the invasive (tumour or nontumour) cells will be capable of becoming detached and of invading the Matrigel layer before migrating across the membrane.
The quantification of the cell migration is carried out by labelling with calcein AM (Molecular Probes C-3100). The fluorescent signal emitted is measured with the aid of a Perkin Elmer Wallac VICTOR 3 reader and may be directly correlated with the number of cells which have invaded the Matrigel gel. By comparing them with controls made in the same experiment as the products studied (response in the presence of 0% and 5% foetal calf serum), it is possible to determine a percentage inhibition of cell invasion in the presence of the products.

heparanase = target: T1, heparanase (Homo sapiens, UniProt Q9Y251); test: Heparanase inhibition in an enzymatic system (degradation of fondaparinux, read out by anti-factor Xa activity); format: biochemical; details: mean±SD, done on two assays
T1 sequence (Q9Y251 36-543): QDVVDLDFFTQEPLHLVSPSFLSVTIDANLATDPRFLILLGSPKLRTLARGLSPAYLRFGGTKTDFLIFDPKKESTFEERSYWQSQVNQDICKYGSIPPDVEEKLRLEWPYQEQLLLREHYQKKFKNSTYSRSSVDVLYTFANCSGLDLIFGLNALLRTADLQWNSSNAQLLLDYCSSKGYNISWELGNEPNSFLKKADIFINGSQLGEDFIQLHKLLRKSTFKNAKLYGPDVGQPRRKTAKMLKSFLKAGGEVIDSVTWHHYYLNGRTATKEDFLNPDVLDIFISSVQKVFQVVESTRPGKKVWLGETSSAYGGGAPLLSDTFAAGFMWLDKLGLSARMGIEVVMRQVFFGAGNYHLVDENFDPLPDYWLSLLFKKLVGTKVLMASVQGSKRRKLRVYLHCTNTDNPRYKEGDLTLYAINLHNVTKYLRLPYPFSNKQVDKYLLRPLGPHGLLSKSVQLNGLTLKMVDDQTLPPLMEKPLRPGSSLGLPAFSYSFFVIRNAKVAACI
Experimental: The concentration of fondaparinux is determined by means of its anti-factor Xa activity.
The heparanase is produced by Sanofi-Synthelabo (Labège, France).
The reagents for assaying factor Xa are marketed by Chromogénix (Montpellier, France).
Increasing concentrations of a compound according to the invention, an inhibitor of heparanases (varying dilutions: from 1 nM to 10 μM) are mixed at a fixed heparanase concentration (for each batch, preliminary experiments make it possible to determine the enzymatic activity which is sufficient for the degradation of 0.45 μg/ml of added fondaparinux). After 5 minutes at 37° C., the mixture is exposed to fondaparinux and left for 1 hour at 37° C. The reaction is stopped by heating at 95° C. for 5 minutes. The residual fondaparinux concentration is finally measured by adding factor Xa and its specific chromogenic substrate (Ref. S2222).
The various mixtures are produced according to the following procedure:
50 μl of sodium acetate buffer (0.2 M, pH 4.2) are mixed with 50 μl of fondaparinux (0.45 μg/ml) and 59 μl of a heparanase solution. The mixture is incubated for 1 hour at 37° C. and then for 5 minutes at 95° C. […]
The anti-factor Xa activity of fondaparinux is measured in the following manner: […]
The optical density is read at 405 nm.
A percentage inhibition is determined relative to control without inhibitor. […]

Row | Structure (SMILES) | inhibition of cell invasion (HT1080 tumour cells; 0.3 μM) [%] | inhibition of cell invasion (HT1080 tumour cells; 1 μM) [%] | inhibition of cell invasion (HT1080 tumour cells; 10 μM, four independent determinations, mean±standard deviation) [%] | effect on cell invasion as a function of dose (HT1080 tumour cells; HT1080 cells) | IC50 (heparanase) [nM]
1 | CC(=O)N[C@H]1[C@@H](O[C@H]2[C@H](O)CNC[C@@H]2C(=O)O)O[C@H](COS(=O)(=O)O)[C@@H](O[C@@H]2O[C@@H](C(=O)O)[C@@H](O[C@H]3O[C@H](COS(=O)(=O)O)[C@@H](O[C@@H]4O[C@@H](C(=O)O)[C@@H](OS(=O)(=O)O)[C@H](O)[C@H]4OS(=O)(=O)O)[C@H](O)[C@H]3NC(C)=O)[C@H](O)[C@H]2OS(=O)(=O)O)[C@@H]1O.[Na+].[Na+].[Na+].[Na+].[Na+].[Na+].[Na+].[Na+] [compound No. 20, (2,4-di-O-sodium sulphonato-α-L-idopyranosyluronate of sodium)-(1-4)-(2-acetamido-2-deoxy-6-O-sodiumsulphonato-α-D-glucopyranosyl)-(1-4)-(2-O-sodiumsulphonato-α-L-idopyranosyluronate of sodium)-(1-4)-(2-acetamido-2-deoxy-6-O-sodiumsulphonato-α-D-glucopyranosyl)-(1-4)-(5-(hydroxy)-4-oxypiperidine-3-carboxylate of sodium (3S,4R,5R))] | 26±3 | 53±11 | 40.3±8.3 | dose-dependent effect | 
2 | O=C(O)[C@H]1CNC[C@@H](O)[C@@H]1O[C@H]1O[C@H](COS(=O)(=O)O)[C@@H](O[C@@H]2O[C@@H](C(=O)O)[C@@H](O[C@H]3O[C@H](COS(=O)(=O)O)[C@@H](O[C@@H]4O[C@@H](C(=O)O)[C@@H](OS(=O)(=O)O)[C@H](O)[C@H]4OS(=O)(=O)O)[C@H](O)[C@H]3NS(=O)(=O)O)[C@H](O)[C@H]2OS(=O)(=O)O)[C@H](O)[C@H]1NS(=O)(=O)O [compound No. 27, (2,4-di-O-sodium sulphonato-α-L-idopyranosyluronate of sodium)-(1-4)-(2-N-sodiumsulphonato-2-deoxy-6-O-sodiumsulphonato-α-D-glucopyranosyl)-(1-4)-(2-O-sodiumsulphonato-α-L-idopyranosyluronate of sodium)-(1-4)-(2-N-sodiumsulphonato-2-deoxy-6-O-sodiumsulphonato-α-D-glucopyranosyl)-(1-4)-(5-(hydroxy)-4-oxypiperidine-3-carboxylate of sodium (3S,4R,5R))] |  |  |  |  | 11 ± 4
